“Also recorded” adds a separate entry of the source.
Assays:
Format in all cases: cell-based
T cells [1] = experiment: ARM-BCMA CAR expression kinetics in vitro with or without AZT (FACS); conditions: 30 μM and 100 μM doses
Protocol: In contrast to TM which measures lentiviral integration of the CAR transgene after 8-9 days, in the ARM process, the lentiviral transgene may not be fully integrated and truly expressed within 24 h post lentiviral addition, as lentiviral pseudotransduction could occur (Haas D L, et al., (2000) Mol Ther; 2(1):71-80; Galla M, et al., (2004) Mol Cell; 16(2):309-15). Therefore, the BCMA-CAR expression pattern was evaluated over time by extended culturing of ARM-BCMA CAR in vitro in the presence or absence of 3′-azido-3′-deoxythymidine (AZT) to evaluate the potential pseudotransduction versus stable integration and expression of the CAR transgene. Flow cytometry (FACS) analyses were performed to detect CAR surface expression at 24 h, 48 h, 72 h, 96 h and 168 h post T cell activation and transduction with the lentiviral vector. In some cases, ARM-BCMA CAR and an aliquot of this product were frozen down immediately upon harvest for additional characterization in other assays.

T cells [2] = experiment: T cell differentiation status by flow cytometry (CCR7/CD45RO), cytokine process; conditions: purified T cells cultured with cytokine 24 hours, no CD3/CD28 stimulation
Protocol: The cells were immunophenotyped for T cell differentiation status and transduction of the CAR was assessed using flow cytometry. The cells were washed, viability dye was added followed by the antibody cocktail (Table 20), and the plates were incubated for 20 minutes at room temperature. After the incubation, the cells were washed twice and fixed prior to being analyzed on the BD fortessa.

T cells [3] = experiment: T cell culture with cytokines after αCD3/αCD28 bead activation (expansion, size, viability); conditions: for T cell expansion: T cells activated with αCD3αCD28 beads at day 0 in presence of cytokine; for cell size and viability: after TCR engagement
Protocol: Previously frozen T cells were thawed and contacted with αCD3/αCD28 dynal beads (cell to bead ratio of 1 to 3) in the presence of indicated cytokines at day 0. From day 3, twice more T cell growth media (RPMI1640, 10% FBS, 2 mM L-glutamin, 100 μM non-essential amino acids, 1 mM sodium pyruvate, 10 mM Hepes, 55 μM β-mercaptoethanol, 10% FBS, and 100 U/ml of penicillin-streptomycin) was added to the plate with indicated cytokines (without cytokine, rhIL2 (501 U/ml, Novartis), IL6 (10 ng/ml, R&D systems), IL7 (10 ng/ml, Peprotech), IL15 (10 ng/ml, Peprotech), and IL21 (10 ng/ml, Peprotech)) at day 3, 5, 6, 9, 12, 15, and 18.

IL6Rβ expressing cells = experiment: Cell surface staining (IL6Rα/IL6Rβ and differentiation markers); conditions: after TCR engagement
Excerpt: Cells were harvested at indicated time points and then stained with live/dead dye (eFluro780, eBioscience), CD3 (BioLegend, clone #: OKT3), CD4 (BioLegend, clone #: OKT4), CD8 (BD Bioscience, clone #: RPA-T8), CD45RO (BioLegend, clone #: UCHL1), CCR7 (BioLegend, clone #: G043H7), CD27 (BD Horizon, clone #: L128), CD127 (BioLegend, clone #: A019D5), CD57 (BioLegend, clone #: HCD57), CD126 (BioLegend, clone #: UV4), and CD130 (R&D Systems, clone #: 28126) antibodies. The cells were acquired by FACS Fortessa and then FlowJo program was used for data analysis.

Question: `Cc1cn([C@H]2C[C@H](N=[N+]=[N-])[C@@H](CO)O2)c(=O)[nH]c1=O` [AZT, 3′-azido-3′-deoxythymidine] was tested. Which “inhibition of CAR expression” value (T cells [1]) did it give?
Answer: effectively inhibit CAR expression

Question: Which “maintenance of self-renewing / naïve T cells (CD45RO−CCR7+)” value (T cells [2]) does the source give for IL-15: cytokine here?
Answer: maintained self-renewing T cells in vitro

Question: And the T cell expansion (T cells [3])?
Answer: enhanced T cell expansion; also recorded: the greatest enhancement

Question: And the “cell size and viability” value (T cells [3])?
Answer: did not affect cell size and viability

Question: And the “expansion of IL6Rβ expressing cells” value (IL6Rβ expressing cells)?
Answer: enhanced expansion of IL6Rβ expressing cells

B1: IL7: cytokine (protein, UniProt P13232 26-177, looked up)
Interleukin-7: DCDIEGKDGKQYESVLMVSIDQLLDSMKEIGSNCLNNEFNFFKRHICDANKEGMFLFRAARKLRQFLKMNSTGDFDLHLLKVSEGTTILLNCTGQVKGRKPAALGEAQPTKSLEENKSLKEQKKLNDLCFLKRLLQEIKTCWNKILMGTKEH
Question: For B1, which T cell expansion (T cells [3]) is on record?
Answer: enhanced T cell expansion

Question: And the “cell size and viability” value (T cells [3])?
Answer: did not affect cell size and viability

Reference: US12630604B2, “Methods of making chimeric antigen receptor-expressing cells” (Novartis AG, priority 2018, dated 2026)
